Like-named read-outs stand apart in the source and are kept apart here.
System: primary neuronal cultures from embryonic rat brains
Assay: Rat oscillation assay (FLIPR, neuronal calcium oscillations)
Assay type: cell-based
Method: A) Rat Oscillation Assay:
This assay is a functional phenotypic assay designed to mimic epileptic seizures using primary neuronal cultures from embryonic rat brains, which form a functional neuronal network that generate synchronized intracellular calcium concentration oscillations when cultured at high density in 384-well plate. The epileptic phenotype is induced by incubating the neurons in magnesium-free assay buffer, that results in increased probability of NMDA receptor activation, leading to an increased frequency and amplitude of intracellular calcium oscillations. Once neurons are incubated with the calcium indicator dye Fluo-8 AM (Tebu-bio), neuronal calcium oscillations can be monitored in real time using FLIPR® Tetra (fluorometric plate reader, Molecular Devices). With these recordings, the effect of anti-epileptic drugs can be quantified. The anti-epileptic effect of compounds, which activate directly or indirectly the Kv7 channels can be modulated by the Kv7 channel blocker XE-991. The assay was performed as described previously (Pacico N, Mingorance-Le Meur A. New In Vitro Phenotypic Assay for Epilepsy: Fluorescent Measurement of Synchronized Neuronal Calcium Oscillations. PLoS ONE 9(1) 2014) with modifications described hereafter.
Animal care followed standard procedures in accordance with swiss institutional guidelines. Dissociated neuronal cultures were obtained from cerebral cortices of embryonic Wistar rats at embryonic stage E18 (Charles River). The uterine horns were removed by caesarian surgery from deeply anesthetized rats (Isofurane) and sacrificed by decapitation. The embryos were decapitated by closing forceps. The brains were isolated and dissected one by one in ice-cold PBS (Life Technologies) under optical control using a binocular. Meninges, olfactory bulbs, and basal ganglia were removed. Cortical hemispheres (still including the hippocampus) were cut in small pieces with tweezers and placed on ice in pre-chilled Hibernate-E medium (Life technology). The hemispheres were then incubated in 10 mL of Hibernate-E containing 15 U/mL papain (Worthington) for 25 min at 30° C. with gentle mixing every 10 min. Genomic DNA was then digested by prolonging the incubation during 10 min at 37° C. in presence of 4 U/mL rDNase I (Ambion). The obtained suspension was then centrifuged at 800 g for 5 min and the cell pellet was resuspended in 2 mL Hibernate-E and gently dissociated by pipetting up and down 10 times with a plastic Pasteur pipette resulting in a homogenous cell suspension. This suspension was immediately filtered through a 70 µm cell strainer (MACS® SmartStrainer, Miltenyi), collected in 10 mL Hibernate-E and centrifuged at 800 g for 5 min. The cell pellet was resuspended in Neurobasal medium, supplemented with 2% B-27, 0.5 mM Glutamax-I, 100 U/mL penicillin, 100 µg/mL streptomycin (Life Technologies) and diluted at the final concentration of 300′000 cells/mL. One day before plating the cells, 384-well plates were coated with 25 μL/well of 0.1% poly-L-lysine solution (Sigma), incubated overnight at 37° C., washed two times with sterile distilled water and allowed to dry at room temperature for >2 h. The neurons were seeded at a density of 15′000 cells/well in 50 μL/well in a 384-well black, clear-bottomed plates (Corning) and subsequently maintained in an incubator at 37° C., 5% CO2 and 95% humidity for 8 to 10 days. After 3 and 7 days, 40% of media was renewed under sterile conditions.
Protocol Rat Oscillation Assay
Neurons seeded in the assay plates were washed with Hank's balanced salt solution (HBSS) devoid of Ca^2+ and Mg^2+, supplemented with 20 mM HEPES (Life Technologies) and 2 mM CaCl2 (Sigma), pH 7.4 (hereafter called Assay buffer) using a Biotek EL406 plate washer. Neurons were loaded with 1 μM Fluo-8 AM in Assay buffer for 15 min at 37° C., 5% CO2. […]

[1] = Rattus norvegicus, 20 min, AUC of fluorescence measured 20 min after compound addition, read-out: FLIPR: IC50 [nM] 20 min
[2] = Rattus norvegicus, Acute phase, ratio of AUC fluorescence before and after compound addition, read-out: FLIPR: IC50 [nM] acute

| SMILES | IC50 [1] [nM] | IC50 [2] [nM] | IC50 (AUC of fluorescence measured 20 min after compound addition, read-out: FLIPR: IC50 [nM] 20 min) [nM] | IC50 (Acute phase, ratio of AUC fluorescence before and after compound addition, read-out: FLIPR: IC50 [nM] acute) [nM] |
| --- | --- | --- | --- | --- |
| CC(C)(NC(=O)NC1CC2(CCC2)C1)c1ccnc(OC(F)F)c1 [Example 52, 1-[1-(2-Difluoromethoxy-pyridin-4-yl)-1-methyl-ethyl]-3-spiro[3.3]hept-2-yl-urea] | 143 | 72 |  |  |
| O=C(NCc1cccc(OCC(F)(F)F)c1)NC1CC2(CC2)C1 [Example 157, 1-Spiro[2.3]hex-5-yl-3-[3-(2,2,2-trifluoro-ethoxy)-benzyl]-urea] | 156 | 74 |  |  |
| CC(NC(=O)NC1CC2(CCC2)C1)c1cc(F)cc(OCC(F)(F)F)c1 (racemic) [Example 95, (±)-1-{1-[3-Fluoro-5-(2,2,2-trifluoro-ethoxy)-phenyl]-ethyl}-3-spiro[3.3]hept-2-yl-urea] | 48 | 52 |  |  |
| CC(NC(=O)NC1CC2(CCC2)C1)c1cc(Cl)cc(OCC(F)(F)F)c1 (racemic) [Example 33, (±)-1-{1-[3-Chloro-5-(2,2,2-trifluoro-ethoxy)-phenyl]-ethyl}-3-spiro[3.3]hept-2-yl-urea] | 65 | 80 |  |  |
| O=C(NCc1cccc(OC(F)F)c1)NC1CC2(CCC2)C1 [Example 13, 1-(3-Difluoromethoxy-benzyl)-3-spiro[3.3]hept-2-yl-urea] | 133 | 88 |  |  |
| COCC(NC(=O)NC1CC2(CCC2)C1)c1ccnc(OCC(F)(F)F)c1 (racemic) [Example 92, (±)-1-{2-Methoxy-1-[2-(2,2,2-trifluoro-ethoxy)-pyridin-4-yl]-ethyl}-3-spiro[3.3]hept-2-yl-urea] | 0.8 | 1.3 |  |  |
| CC(Oc1cccc(C2(NC(=O)NC3CC4(CC4)C3)CC2)c1)C(F)(F)F (racemic) [Example 135, (±)-1-Spiro[2.3]hex-5-yl-3-{1-[3-(2,2,2-trifluoro-1-methyl-ethoxy)-phenyl]-cyclopropyl}-urea] | 115 | 133 |  |  |
| Cc1nc(OCC(F)(F)F)cc(C(CO)NC(=O)NC2CC3(CCC3)C2)n1 (racemic) [Example 82, (±)-1-{2-Hydroxy-1-[2-methyl-6-(2,2,2-trifluoro-ethoxy)-pyrimidin-4-yl]-ethyl}-3-spiro[3.3]hept-2-yl-urea] | 59 | 66 |  |  |
| CC(NC(=O)NC1CC2(CC(I)C2)C1)c1ccnc(OC(F)F)c1 (racemic) [Example 166, (±)-1-[1-(2-Difluoromethoxy-pyridin-4-yl)-ethyl]-3-(6-iodo-spiro[3.3]hept-2-yl)-urea] | 474 | 889 |  |  |
| CC(NC(=O)NC1CC2(CCC2)C1)c1cccc(S(C)(=O)=O)c1 (racemic) [Example 36, (±)-1-[1-(3-Methanesulfonyl-phenyl)-ethyl]-3-spiro[3.3]hept-2-yl-urea] | 330 | 236 |  |  |
| CN(C)CC(Oc1cccc(CNC(=O)NC2CC3(CCC3)C2)n1)C(F)(F)F (racemic) [Example 105, (±)-1-[6-(1-Dimethylaminomethyl-2,2,2-trifluoro-ethoxy)-pyridin-2-ylmethyl]-3-spiro[3.3]hept-2-yl-urea] | 261 | 278 |  |  |
| O=C(NC1CC2(CC2)C1)NC(CCO)c1cccc(OC(F)(F)F)c1 (racemic) [Example 138, (±)-1-[3-Hydroxy-1-(3-trifluoromethoxy-phenyl)-propyl]-3-spiro[2.3]hex-5-yl-urea] | 92 | 60 |  |  |
| O=C(NCc1cccc(OC(F)(F)F)c1)NC1CC2(CCC2)C1 [Example 41, 1-Spiro[3.3]hept-2-yl-3-(3-trifluoromethoxy-benzyl)-urea] | 25 | 44 |  |  |
| O=C(NCc1cccc(C(F)(F)F)c1)NC1CC2(C1)CC2(F)F (single isomer, unassigned) [Example 4, 1-(1,1-Difluoro-spiro[2.3]hex-5-yl)-3-(3-trifluoromethyl-benzyl)-urea] |  |  | 152 | 175 |
| O=C(NCc1ccnc(OC(F)(F)F)c1)NC1CC2(CCC2)C1 [Example 96, 1-Spiro[3.3]hept-2-yl-3-(2-trifluoromethoxy-pyridin-4-ylmethyl)-urea] | 61 | 82 |  |  |
| COCC(c1ccnc(OCC(F)(F)F)c1)N(C)C(=O)NC1CC2(CCC2)C1 (racemic) [Example 50, (±)-1-{2-Methoxy-1-[2-(2,2,2-trifluoro-ethoxy)-pyridin-4-yl]-ethyl}-1-methyl-3-spiro[3.3]hept-2-yl-urea] | 118 | 80 |  |  |
| COc1c(C(C)NC(=O)NC2CC3(CC3)C2)cccc1C(F)(F)F (racemic) [Example 133, (±)-1-[1-(2-Methoxy-3-trifluoromethyl-phenyl)-ethyl]-3-spiro[2.3]hex-5-yl-urea] | 670 | 396 |  |  |
| O=C(NC1CC2(CCC2)C1)NC(c1cccc(C(F)(F)F)c1)C(F)F (centres unmarked) [Example 57, 1-[2,2-Difluoro-1-(3-trifluoromethyl-phenyl)-ethyl]-3-spiro[3.3]hept-2-yl-urea] | 2.3 | 2.9 |  |  |
| O=C(NCc1cccc(OCC(F)(F)F)c1)NC1CC2(CCC2)C1 [Example 14, 1-Spiro[3.3]hept-2-yl-3-[3-(2,2,2-trifluoro-ethoxy)-benzyl]-urea] | 27 | 31 |  |  |
| CC(NC(=O)NC1CC2(CCC2)C1)c1cccc(C(F)(F)F)c1 (racemic) [Example 23, (±)-1-Spiro[3.3]hept-2-yl-3-[1-(3-trifluoromethyl-phenyl)-ethyl]-urea] | 4.6 | 13 |  |  |
| O=C(NCc1ccnc(OCC(F)(F)F)n1)NC1CC2(CCC2)C1 [Example 70, 1-Spiro[3.3]hept-2-yl-3-[2-(2,2,2-trifluoro-ethoxy)-pyrimidin-4-ylmethyl]-urea] | 546 | 219 |  |  |
| COc1c(OCC(F)(F)F)cccc1C(C)NC(=O)NC1CC2(CCC2)C1 (racemic) [Example 31, (±)-1-{1-[2-Methoxy-3-(2,2,2-trifluoro-ethoxy)-phenyl]-ethyl}-3-spiro[3.3]hept-2-yl-urea] | 25 | 20 |  |  |
| COC[C@H](NC(=O)NC1CC2(CCC2)C1)c1ccnc(OC(F)F)c1 (single isomer, unassigned) [Example 187] | 3.9 | 2.7 |  |  |
| CN(C)CC(NC(=O)NC1CC2(CCC2)C1)c1cccc(OCC(F)(F)F)n1 (racemic) [Example 48, (±)-1-{2-Dimethylamino-1-[6-(2,2,2-trifluoro-ethoxy)-pyridin-2-yl]-ethyl}-3-spiro[3.3]hept-2-yl-urea] | 138 | 510 |  |  |
| CSCCC(NC(=O)NC1CC2(CCC2)C1)c1cccc(C(F)(F)F)c1 (racemic) [Example 75, (±)-1-[3-Methylsulfanyl-1-(3-trifluoromethyl-phenyl)-propyl]-3-spiro[3.3]hept-2-yl-urea] | 129 | 106 |  |  |
| O=C(NC1CC2(CCC2)C1)NC(CCO)c1cc(OCC(F)(F)F)ncn1 (racemic) [Example 85, (±)-1-{3-Hydroxy-1-[6-(2,2,2-trifluoro-ethoxy)-pyrimidin-4-yl]-propyl}-3-spiro[3.3]hept-2-yl-urea] | 146 | 157 |  |  |
| O=C(NCc1cccc(C(F)(F)F)c1)NC1CC2(C1)CC(F)(F)C2 [Example 6, 1-(6,6-Difluoro-spiro[3.3]hept-2-yl)-3-(3-trifluoromethyl-benzyl)-urea] | 112 | 62 |  |  |
| CC(NC(=O)NC1CC2(CC2)C1)c1cc(F)cc(OCC(F)(F)F)c1 (racemic) [Example 132, (±)-1-{1-[3-Fluoro-5-(2,2,2-trifluoro-ethoxy)-phenyl]-ethyl}-3-spiro[2.3]hex-5-yl-urea] | 110 | 79 |  |  |

— patent US20230136562A1, “SPIROUREA DERIVATIVES” (Idorsia Pharmaceuticals Ltd, priority 2020, published 2023)
